Results as given in patent US20210161868A1, “ANTI-INFLAMMATORY THERAPY IN ARRHYTHMOGENIC CARDIOMYOPATHY (ACM)” (Beth Israel Deaconess Medical Center, Inc., priority 2018, published 2021).

Key:
Dsg2^mut/mut mice [1] = assay: Morphometry, echocardiography and electrocardiography in Dsg2^mut/mut mice; assay type: in vivo
From the text: All animal studies were in full compliance with policies of Beth Israel Deaconess Medical Center, Johns Hopkins School of Medicine and St. George's University of London. They also conformed to the Guide for the Care and Use of Laboratory Animals from the National Institutes of Health (NIH publication no. 85-23, revised 1996). In vitro studies involved transfection of cultured neonatal rat ventricular myocytes with a mutant allele of the desmosomal protein plakoglobin (2157de12) as previously described.^15 In vivo studies were performed in mice with homozygous knock-in of a mutant form of Dsg2, the gene encoding the desmosomal cadherin desmoglein-2 (Dsg2^mut/mut mice) as previously described.^6 This mutation entails loss of exons 4 and 5 which causes a frameshift and premature termination of translation.
(§1) Three cohorts of mice at 8 weeks of age were anesthetized and implanted with subcutaneous osmotic mini-pumps (Alzet, Model 1004). These included: 1) Dsg2^mut/mut mice with pumps containing 50 μg/μL Bay11-7082 in a vehicle of 65% DMSO, 15% ethanol, and 20% saline; 2) Dsg2^mut/mut mice with pumps containing an equivalent volume of vehicle; and 3) wildtype mice with pumps containing vehicle. Mice in cohort 1 received 5 mg/kg/day of Bay11-7082 by continuous infusion; those in cohorts 2 and 3 received an equivalent volume of vehicle each day for 4 weeks. At 12 weeks of age, mice were re-anesthetized and new Alzet pumps were implanted for an additional 4 weeks of treatment.
At the end of the 8 week drug treatment protocol, cardiac function was assessed in all mice by transthoracic echocardiography and electrocardiography (ECG) as previously described. Echocardio-graphic measurements were made according to American Society of Echocardiography guidelines^48 in non-sedated mice using a Vevo 2100 Visualsonic imaging system. Parasternal long-axis views of the left ventricle (LV), at the level of the papillary muscles, were acquired at a sweep speed of 200 mm/second. Three to five measurements were acquired from each mouse and averaged to assess LV function as previously described. ECG measurements made in anesthetized mice in which wire electrodes had been sutured in place in the right and left arms to obtain standard lead I ECG recordings. Recordings were captured via PowerLab and analyzed via the LabChart Pro ECG Analysis Add-on Software (LabChart Pro 8, MLS360/8, AD Intruments). ECGs were recorded for 15 minutes and all ECG wave and amplitude parameters were analyzed as signal averaged ECGs (SAECGs). Following completion of functional studies, mice were euthanized and hearts were excised and processed for additional studies either by freezing fresh tissue (−80C) or fixing tissue in 10% buffered formalin and embedding in paraffin.

Dsg2^mut/mut mice [2] = assay: Myocardial histology, TUNEL, immunofluorescence and immunoperoxidase in Dsg2^mut/mut mice; assay type: in vivo
Experimental: as §1
Immunofluorescence staining was used to characterize the distribution of selected proteins at cell-cell junctions as previously reported.^6,15 Deparaffinized slide-mounted myocardial sections (5 μm thick) were rehydrated and heated in citrate buffer (10 mmol/L, pH 6.0) to enhance specific immunostaining. After being cooled to room temperature, tissue sections were simultaneously permeabelized and blocked by incubating them in PBS containing 1% Triton X-100, 3% normal goat serum and 1% bovine serum albumin. The sections were then incubated first with primary antibodies and then with Cy3-conjugated goat anti-rabbit IgG (Jackson Immunolabs, 1:400). Primary antibodies included rabbit polyclonal anti-Cx43 (SIGMA C6219, 1:200), anti-N-cadherin (SIGMA C3678, 1:400), anti-plakoglobin (Thermo Fisher Scientific PA5-17320, 1:500), anti-GSK3β (Cell Signaling Technology 27C10, 9315S, 1:80) and anti-SAP97 (Abcam, ab134156, 1:200). Immunostained preparations were visualized by confocal microscopy. Additional sections prepared with Masson trichrome and hematoxylin & eosin stains were examined by light microscopy.
Immunoperoxidase staining was used to detect expression of selected cytokines in sections of mouse myocardium as previously reported.^12 Slide-mounted paraffin sections were heated to 60° C. for 80 minutes, cooled to room temperature, deparaffinized, and rehydrated. Antigen retrieval was achieved by heating the samples in citrate buffer (pH 6.0) to boiling followed by cooling to room temperature. Immunohistochemical staining was performed using conventional methods (Universal DAKO EnVision System; peroxidase). Once endogenous peroxidase activity had been blocked, primary antibody was applied followed by incubation with horseradish peroxidase-labeled polymer. The reaction was completed with an enzyme/substrate system, with diaminobenzidine as the chromogen substrate. The tissue was counterstained with Harris hematoxylin. Primary antibodies included rabbit polyclonal anti-TNFα (AbCam ab34674, 1:50 dilution), anti-IL-1(3 (AbCam ab9722, 1:500) and anti-MCP-1α (Novus Biologicals NBP2-41209, 1:250). In each experiment, control, vehicle-treated and drug-treated samples were batched to ensure identical staining and signal-generating conditions.
Immunoperoxidase staining using conventional techniques was also used to detect T-cells and macrophages in myocardial tissue sections from Dsg2^mut/mut mice. T-cells were identified using an anti-CD3 antibody (Abcam ab16669, 1:200 dilution) and macrophages were marked with an anti-CD68 antibody (Abcam ab127055, 1:400). After standard development in diaminobenzidine, sections were counterstained with hematoxylin and examined qualitatively by light microscopy.

[3] = Dsg2^mut/mut + Bay11-7082, n=17, mean±SEM, 8 week treatment
[4] = Dsg2^mut/mut mice, continuous infusion over 8 weeks

Which “FS, fractional shortening” value (Dsg2^mut/mut mice [1]; [3]) does the source give for `Cc1ccc(S(=O)(=O)/C=C/C#N)cc1` [Bay 11-7082] here?
Its value is 49.5 ± 1.9%.

And the “HW/BW, heart weight/body weight” value (Dsg2^mut/mut mice [1]; [3])?
Its value is 4.7 ± 0.1 mg/g.

What about the “IVSd, interventricular septum thickness at end-diastole” value (Dsg2^mut/mut mice [1]; [3]) of the same compound?
Its value is 0.95 ± 0.02 mm.

And the “LVIDd, left ventricular internal diameter at end-diastole” value (Dsg2^mut/mut mice [1]; [3])?
The value was 2.96 ± 0.06 mm.

What about the “LVIDs, left ventricular internal diameter at end-systole” value (Dsg2^mut/mut mice [1]; [3]) of the same compound?
The value was 1.50 ± 0.08 mm.

And the “LVM, left ventricular mass” value (Dsg2^mut/mut mice [1]; [3])?
Its value is 92.9 ± 3.08 mg.

And the “P-Amp, P-wave amplitude” value (Dsg2^mut/mut mice [1]; [3])?
The value was 0.06 ± 0.003 mV.

What about the “PR-I, P-R interval” value (Dsg2^mut/mut mice [1]; [3]) of the same compound?
The value was 39.0 ± 0.9 ms.

And the “Pd, P-wave duration” value (Dsg2^mut/mut mice [1]; [3])?
Its value is 10.1 ± 0.5 ms.

What about the “Q-Amp, Q-wave amplitude” value (Dsg2^mut/mut mice [1]; [3]) of the same compound?
The value was −0.06 ± 0.01 mV.

What about the “QRSd, QRS wave duration” value (Dsg2^mut/mut mice [1]; [3]) of the same compound?
Its value is 11.4 ± 0.4 ms.

What about the “R-Amp, R-wave amplitude” value (Dsg2^mut/mut mice [1]; [3]) of the same compound?
The value was 0.66 ± 0.04 mV.

And the “RR-I, R-R interval” value (Dsg2^mut/mut mice [1]; [3])?
The value was 118 ± 2.5 ms.

And the “S-Amp, S-wave amplitude” value (Dsg2^mut/mut mice [1]; [3])?
The value was −0.09 ± 0.04 mV.

And the “abnormalities in the signal averaged ECG” value (Dsg2^mut/mut mice [1]; [4])?
Its value is “corrected”.

What about the contractile function (Dsg2^mut/mut mice [1]; [4]) of the same compound?
The contractile function was “normalized”.

What about the “treated ACM mice that failed to respond to NFκB inhibition” value (Dsg2^mut/mut mice [1]; related to technical failure of drug delivery by Alzet minipumps) of the same compound?
Its value is 3 of 17.

What about the “abnormal distributions of plakoglobin, Cx43, GSK3β and SAP97” value (Dsg2^mut/mut mice [2]; [4]) of the same compound?
The value was “normalized”.

And the “amount of ventricular myocardial necrosis and fibrosis” value (Dsg2^mut/mut mice [2]; [4])?
Its value is “marked reduction”.

And the “number of apoptotic cells seen by TUNEL labeling” value (Dsg2^mut/mut mice [2]; [4])?
Its value is “significant reduction”.

And the “abnormal distributions of plakoglobin, Cx43, GSK3β and SAP97” value (Dsg2^mut/mut mice [2]; Dsg2^mut/mut mice, continuous infusion over 8 weeks, listed as Bay11-7082)?
Its value is “fully corrected”.

What about the “immunoreactive signal intensity for IL-1β, TNFα and MCP-1α in myocytes and inflammatory cells” value (Dsg2^mut/mut mice [2]; myocardial sections of Dsg2^mut/mut mice) of the same compound?
Its value is “reduced”.

What about the “total number of infiltrating inflammatory cells in the heart” value (Dsg2^mut/mut mice [2]; survey of myocardial sections, Dsg2^mut/mut mice) of the same compound?
Its value is “reduced”.
